Values of other authors, collected in patent publication US12151062B2, “Compositions and devices to administer pharmaceutical compositions nasally” (BOARD OF REGENTS, THE UNIVERSITY OF TEXAS SYSTEM, priority 2016, dated 2024).
Read-outs that look alike come from different tables or passages of the source.

How the values were obtained:
[1] = for DTE relative to nasal solution alone: mucoadhesive microemulsion i.n.
[2] = thermoreversible gel with chitosan and glycerophosphate
brain tumor = details: mucoadhesive solution i.n.; rats pre-dosed with acetazolamide
[3] = PLGA nanoparticles
[4] = not given; remark: listed apart in the source
[5] = thermosensitive gel i.n. compared to nasal solution in normal saline; rabbits
[6] = mice
[7] = test system: P3 component of the event-related potentials; details: human subjects
[8] = not given; remark: listed apart in the source
[9] = nasal administration with vasoconstrictor phenylephrine

In the case of O=c1[nH]cc(F)c(=O)[nH]1 [5-FU], the “CSF levels with vs without pre-administration of acetazolamide” value ([1]; nasal delivery, rats) is listed as “significantly higher CSF levels” and the “increased brain uptake compared to i.v.” value ([1]; solution i.n., rats pre-dosed with acetazolamide) is listed as 104%.

In the case of CC(C)C[C@H]1C(=O)N2CCC[C@H]2[C@]2(O)O[C@](NC(=O)[C@@H]3C=C4c5cccc6[nH]c(Br)c(c56)C[C@H]4N(C)C3)(C(C)C)C(=O)N12 [Bromocriptine], the “brain AUCs compared to intravenous administration of the nanoparticles” value (mouse, in vivo) is listed as “over two-fold greater” and the “brain and plasma AUC values” (mouse, in vivo) is listed as “higher”.

In the case of NC(=O)N1c2ccccc2C=Cc2ccccc21 [Carbamazepine], the “brain levels in the intranasal group” value ([1]; even at early time points, vs intravenous solution) is given as “unable to detect significantly higher brain levels”, the “brain AUC-to-plasma AUC ratio compared to intravenous therapy” value ([1]; hypromellose and Carbopol 974P gel i.n.) is given as 4.31 times and the systemic bioavailability ([1]; intranasal formulation compared to intravenous carbamazepine solution) is given as 100%. For the same compound, the DTE (thermoreversible gel i.n., mice) was “DTE - 0.98”.

In the case of COc1cc(/C=C/C(=O)CC(=O)/C=C/c2ccc(O)c(OC)c2)ccc1O [Curcumin], the “brain AUC compared to curcumin injection” value ([1]; in situ gelling microemulsion i.n.) is given as “three times”.

In the case of CN(C)CCC=C1c2ccccc2COc2ccccc21 [Doxepin], the “duration of immobility, forced swim test” value [2] is given as “no significant difference”.

For CNCC[C@H](Oc1cccc2ccccc12)c1cccs1 [Duloxetine], the “brain concentrations compared to intravenous administration of duloxetine solution” value ([1]; lipid nanocarrier i.n.) is listed as “about eight times higher”, the DTE ([1]; lipid nanocarrier i.n., rats) is listed as 757.14% and the DTE ([1]; lipid nanocarrier i.n., rats, listed as duloxetine) is listed as 757.14%. For the same compound, the DTE ([1]; solution i.n., rats) was “to 287.34%” and the DTE ([1]; solution i.n., rats, listed as duloxetine) was 287.34%.

In the case of C[C@]12CC[C@@H]3c4ccc(O)cc4CC[C@H]3[C@@H]1CC[C@@H]2O [Estradiol], the AUCCSF/AUCplasma ([1]; cyclodextrin formulation i.n., rats) is given as 1.60 and the AUCCSF/AUCplasma ([1]; i.v., rats) is given as 0.61 from.

For CN(Cc1cnc2nc(N)nc(N)c2n1)c1ccc(C(=O)N[C@@H](CCC(=O)O)C(=O)O)cc1 [Methotrexate], the “increase in uptake compared to i.n. without acetazolamide” value ([1]; mucoadhesive solution i.n., rats pre-dosed with acetazolamide) is listed as 195%, the “CSF AUC after nasal administration compared to intravenous administration” value ([1]; rat, in vivo, iv) is listed as “greater than 13 fold” and the DTE ([1]; solution i.n., rats) is listed as “DTE- 21.7%”. The “reduction in brain tumor weight” value (brain tumor) was 75%.

For COCCOC(=O)C1=C(C)NC(C)=C(C(=O)OC(C)C)C1c1cccc([N+](=O)[O-])c1 (stereo not drawn) [Nimodipine], the “AUC in olfactory bulb after i.n. compared with i.v. treatment” value ([1]; microemulsion, rats) is given as “Higher AUC” and the “AUC in rest of brain after i.n. compared with i.v. treatment” value ([1]; microemulsion, rats) is given as “lower AUC”.

For Cc1cc2c(s1)Nc1ccccc1N=C2N1CCN(C)CC1 [Olanzapine], the DTE ([1]; i.n. solution, rats) is given as “to 550%”, the DTE ([1]; mucoadhesive nanoemulsion i.n., rats) is given as “DTE-890%” and the DTE ([1]; nanomicellar carrier i.n., rats) is given as 520.26%. The “diffusion through sheep nasal mucosa, ex vivo” value [3] was “slower”.

For Cc1nc2n(c(=O)c1CCN1CCC(c3noc4cc(F)ccc34)CC1)CCCC2O (stereo not drawn) [Paliperidone], the “brain AUCs compared to intravenous administration of the microemulsion” value ([1]; intranasal mucoadhesive microemulsion, rats) is given as 2.43 times, the DTE ([1]; mucoadhesive microemulsion (polycarbophil) i.n., rats) is given as 320.69%; and the DTE ([1]; mucoadhesive microemulsion (polycarbophil) i.n., rats, listed as paliperidone) is given as 320.69%. The “DTE relative to nasal solution alone” value ([1]; rats) was 1.74-fold and the “DTE relative to nasal solution alone” value ([1]; rats, listed as paliperidone) was 1.74 fold.

For Cc1nc2ccc(CN(C)c3ccc(C(=O)N[C@@H](CCC(=O)O)C(=O)O)s3)cc2c(=O)[nH]1 [Raltitrexed], the “increase in the AUC after intranasal use compared to intravenous use” value ([1]; depending on the section of brain, rats) is listed as 54-121 fold, the “DTE for Cerebrum” value ([1]; solution (PBS pH 8) i.n., rats) is listed as 120 and the “DTE for Olfactory Bulb” value ([1]; solution (PBS pH 8) i.n., rats) is listed as 127. For the same compound, the “log P” value [4] was −0.98.

For C#CCN[C@@H]1CCc2ccccc21 [Rasagiline], the “brain uptake from gel formulations” value [5] is listed as “significantly higher brain uptake”.

In the case of Cc1nc2n(c(=O)c1CCN1CCC(c3noc4cc(F)ccc34)CC1)CCCC2 [Risperidone], the “plasma AUC after intranasal administration vs intravenous” value (SLNs) is listed as “lower”, the locomotor activity ([6]; any of the tested formulations) is listed as “significantly reduced” and the “locomotor activity compared to nanoemulsion given intravenously” value ([6]; nanoemulsion and mucoadhesive nanoemulsion given intranasally) is listed as “significant reduction”.

In the case of CCCN(CCC)CCc1cccc2c1CC(=O)N2 [Ropinirole], the DTE ([1]; temperature sensitive in situ gel with chitosan and HPMC i.n., rats) is given as “DTE-10.4”.

In the case of Nc1c2c(nc3ccccc13)CCCC2 [Tacrine], the “direct transport efficiency (DTE)” value (mouse, in vivo) is given as 207.23.

In the case of CN(C)CCc1c[nH]c2ccc(C[C@H]3COC(=O)N3)cc12 [Zolmitriptan], the “brain concentrations 30 minutes after administration” value ([1]; micellar formulation i.n., rats) is given as “about fivefold higher” and the “brain concentrations, 30 min up to 120 min” value ([1]; micellar nanocarrier i.n., rats) is given as “significantly higher brain concentrations up to 120 minutes”.

For NC(=O)CC[C@@H]1NC(=O)[C@H](Cc2ccccc2)NC(=O)[C@H](Cc2ccc(O)cc2)NC(=O)[C@@H](N)CSSC[C@@H](C(=O)N2CCC[C@H]2C(=O)N[C@@H](CCCN=C(N)N)C(=O)NCC(N)=O)NC(=O)[C@H](CC(N)=O)NC1=O [arginine vasopressin], the “P3 component of event-related potentials” value ([7]; after intranasal administration) is listed as “significant increase”, the “plasma concentrations after intravenous administration compared to intranasal use” value [7] is listed as “higher” and the “P3 component of event-related potentials” value ([7]; intravenous administration, compared to placebo) is listed as “did not show significant differences”.

In the case of O=c1ccc2ccccc2o1 [coumarin], the “brain concentrations compared to unmodified PEG-PLA nanoparticles i.n.” value ([8]; wheat germ agglutinin conjugated PEG-PLA nanoparticles i.n.) is given as “two-fold increase”.

For NCCc1ccc(O)c(O)c1 [dopamine], the “brain concentrations compared to nerve growth factor dosed at the same concentration” value ([1]; intranasal) is listed as “fivefold higher”.

For GDF-5: growth differentiation factor 5, the “midbrain concentrations compared to acidic solution” value ([1]; rat, in vivo) is listed as “Significantly higher midbrain concentrations compared to acidic solution”.

In the case of L-Tyr-D Arg, the “amount delivered to the olfactory bulb” value [8, 9] is given as “significantly increased”, the “amount in the trigeminal nerve” value [8, 9] is given as “decreased amount” and the “amount of drug absorbed into the systemic circulation” value [8, 9] is given as “significantly decreased”. The “decrease in whole brain concentrations” value [8, 9] was “about 50%”.

In the case of “hypocretin-1 (QPLPDCCRQKTCSCRLYELLHGAGNHAAGILTL; Orexin-A; UniProt O43612 34-66, looked up)”, the “amount delivered to the olfactory bulb” value ([8]; in vivo) is listed as “significantly increased”, the “amount in the trigeminal nerve” value ([8]; in vivo) is listed as “decreased amount” and the “amount of drug absorbed into the systemic circulation” value ([8]; in vivo) is listed as “significantly decreased”. The “decrease in whole brain concentrations” value ([8]; in vivo) was “about 50%”.

In the case of vasoactive intestinal peptide, the “brain levels compared to solution given intranasally” value ([8]; in vivo) is listed as 5.6-7.7 fold and the “brain levels compared to unmodified nanoparticles” value ([8]; in vivo) is listed as “higher brain levels”.
